# Literature values in US20090285869A1, “SALT STABLE LECITHIN ORGANOGEL COMPOSITION” (Humco Holding Group, Inc., priority 2008, published 2009).
# Settings: non-ionic O/W and W/O emulsifiers; scale from 0 to 20
compound,measurement,value
Oleth-20,Approximate HLB value,~15.5
Oleth-10,Approximate HLB value,~12.4
Oleth-5,Approximate HLB value,~9.0
CCCCCCCC/C=C\CCCCCCCC(=O)OCC(O)CO (stereo not drawn) [Glyceryl Oleate],Approximate HLB value,~2.8
CCCCCC[C@@H](O)C/C=C\CCCCCCCC(=O)OCC(O)CO (stereo partly drawn) [Glyceryl Ricinoleate],Approximate HLB value,~2.6
Ceteareth-25,Approximate HLB value,~16.2
Ceteareth-12,Approximate HLB value,~13.4
CCCCCCCCCCCCCCCCCC(=O)OCC(O)CO (stereo not drawn) [Glyceryl Stearate],Approximate HLB value,~4.0
CCCCCCCCCCCC(=O)OCC(O)CO (stereo not drawn) [Glyceryl Laurate],Approximate HLB value,~5.2
Ceteareth-6,Approximate HLB value,~10.0
Ceteareth-20,Approximate HLB value,~15.7
Glyceryl Dilaurate,Approximate HLB value,~4.0
